Experimental data from ChEMBL document CHEMBL3407408, “Design and synthesis of a new class of cryptophycins based tubulin inhibitors” (Eur J Med Chem, 2015).
The source made the active and inactive calls. No cut-off for these calls is given here.

Experiments:
[1] = Cytotoxicity against human FR2 cells after 48 hrs by MTT assay; format: cell-based; conditions: FR2, 48 h
A549 [2] = assay: cells; conditions: Homo sapiens, A549, 48 h
Description: Cytotoxicity against human A549 cells after 48 hrs by MTT assay

[3] = Cytotoxicity against human PC3 cells after 48 hrs by MTT assay; format: functional, cell-based; conditions: PC-3, 48 h
HeLa = assay: cells; conditions: Homo sapiens, 48 h
Description: Cytotoxicity against human HeLa cells after 48 hrs by MTT assay

A549 [4] = assay: Cell cycle arrest in human A549 cells assessed as accumulation at sub-G0 phase at 10 uM after 24 hrs by propidium iodide staining-based flow cytometric analysis (reference value: 5%); format: functional
A549 [5] = assay: Induction of apoptosis in human A549 cells assessed as cellular blebs at 10 to 30 uM after 24 hrs by phase contrast microscopic analysis; format: functional, cell-based
A549 [6] = assay: Induction of apoptosis in human A549 cells assessed as shrinkage of cell size at 10 to 30 uM after 24 hrs by phase contrast microscopic analysis; format: functional, cell-based
A549 [7] = assay: Cell cycle arrest in human A549 cells assessed as accumulation at G1 phase at 30 uM after 24 hrs by propidium iodide staining-based flow cytometric analysis (reference value: 69%); format: functional
A549 [8] = assay: Cell cycle arrest in human A549 cells assessed as increase in hypo diploid sub-G0 DNA fraction after 24 hrs by propidium iodide staining-based flow cytometric analysis; format: functional
A549 [9] = assay: Cell cycle arrest in human A549 cells assessed as accumulation at sub-G0 phase at 30 uM after 24 hrs by propidium iodide staining-based flow cytometric analysis (reference value: 5%); format: functional
A549 [10] = assay: Induction of apoptosis in human A549 cells assessed as […] at 10 to 30 uM after 24 hrs by phase contrast microscopic analysis; format: functional, cell-based
A549 [11] = assay: Cell cycle arrest in human A549 cells assessed as accumulation at G2/M phase at 10 uM after 24 hrs by propidium iodide staining-based flow cytometric analysis (reference value: 5%); format: functional
A549 [12] = assay: Downregulation of beta-tubulin protein expression in human A549 cells at 10 to 30 uM after 24 hrs by Western blot analysis; format: functional, cell-based
A549 [13] = assay: Cell cycle arrest in human A549 cells assessed as accumulation at S phase at 10 uM after 24 hrs by propidium iodide staining-based flow cytometric analysis (reference value: 26%); format: functional
A549 [14] = assay: Cell cycle arrest in human A549 cells assessed as accumulation at G2/M phase at 30 uM after 24 hrs by propidium iodide staining-based flow cytometric analysis (reference value: 5%); format: functional
A549 [15] = assay: Cell cycle arrest in human A549 cells assessed as accumulation at S phase at 30 uM after 24 hrs by propidium iodide staining-based flow cytometric analysis (reference value: 26%); format: functional
A549 [16] = assay: Downregulation of alpha-tubulin protein expression in human A549 cells at 10 to 30 uM after 24 hrs by Western blot analysis; format: functional, cell-based
A549 [17] = assay: Cell cycle arrest in human A549 cells assessed as accumulation at G1 phase at 10 uM after 24 hrs by propidium iodide staining-based flow cytometric analysis (reference value: 69%); format: functional
A549 [18] = assay: Induction of apoptosis in human A549 cells assessed as formation of multiple apoptotic bodies at 10 to 30 uM after 24 hrs by Hoechst 33258 staining-based inverted fluorescence microscopic analysis; format: functional, cell-based
A549 [19] = assay: Cell cycle arrest in human A549 cells assessed as accumulation at G2/M phase at 1 uM by propidium iodide staining-based flow cytometric analysis (reference value: 5%); format: functional

SMILES | IC50 [1] [µM] | IC50 (A549 [2]) [µM] | IC50 [3] [µM] | IC50 (HeLa) [µM] | also measured
COc1ccc(C[C@@H]2NC(=O)/C=C/C[C@@H](c3ccc(Cl)cc3Cl)OC(=O)[C@H](CC(C)C)OC(=O)CCNC2=O)cc1 | > 100 | 45 | 32 | 33 | –
COc1ccc(C[C@H]2NC(=O)/C=C/C[C@@H](c3ccc([N+](=O)[O-])cc3)OC(=O)[C@H](CC(C)C)OC(=O)CCNC2=O)cc1 | 97 | 10 | 15 | 28 | Activity (A549 [4]): 11%; Activity (A549 [5]): Active; Activity (A549 [6]): Active; Activity (A549 [7]): 62%; Activity (A549 [8]): Dose-dependent effect; Activity (A549 [9]): 26%; Activity (A549 [10]): Active; Activity (A549 [11]): 6%; Activity (A549 [12]): Active; Activity (A549 [13]): 35%; Activity (A549 [14]): 8%; Activity (A549 [15]): 30%; Activity (A549 [16]): Active; Activity (A549 [17]): 59%; Activity (A549 [18]): Active
COc1ccc(C[C@@H]2NC(=O)/C=C/C[C@@H](c3ccc([N+](=O)[O-])cc3)OC(=O)[C@H](CC(C)C)OC(=O)CCNC2=O)cc1 | 78 | 11 | 70 | 40 | Activity (A549 [4]): 19%; Activity (A549 [5]): Active; Activity (A549 [6]): Active; Activity (A549 [7]): 80%; Activity (A549 [8]): Dose-dependent effect; Activity (A549 [9]): 49%; Activity (A549 [10]): Active; Activity (A549 [11]): 10%; Activity (A549 [12]): Active; Activity (A549 [13]): 25%; Activity (A549 [14]): 19%; Activity (A549 [15]): 1%; Activity (A549 [16]): Active; Activity (A549 [17]): 65%; Activity (A549 [18]): Active
COc1ccc(C[C@H]2NC(=O)/C=C/C[C@@H](c3ccc(Br)cc3)OC(=O)[C@H](CC(C)C)OC(=O)CCNC2=O)cc1 | 87 | 60 | 60 | 55 | –
COc1ccc(C[C@@H]2NC(=O)/C=C/C[C@@H](c3cccc([N+](=O)[O-])c3)OC(=O)[C@H](CC(C)C)OC(=O)CCNC2=O)cc1 | 93 | 90 | 100 | 35 | –
COc1ccc(C[C@@H]2NC(=O)/C=C/C[C@@H](c3ccc(Br)cc3)OC(=O)[C@H](CC(C)C)OC(=O)CCNC2=O)cc1 | > 100 | 56 | 68 | 60 | –
COc1ccc(C[C@@H]2NC(=O)/C=C/C[C@@H](c3c(F)c(F)c(F)c(F)c3F)OC(=O)[C@H](CC(C)C)OC(=O)CCNC2=O)cc1 | 79 | > 100 | 100 | 100 | –
CC(=O)O[C@H]1C(=O)[C@@]2(C)[C@H]([C@H](OC(=O)c3ccccc3)[C@]3(O)C[C@H](OC(=O)[C@H](O)[C@@H](NC(=O)c4ccccc4)c4ccccc4)C(C)=C1C3(C)C)[C@]1(OC(C)=O)CO[C@@H]1C[C@@H]2O [PACLITAXEL] | 16 | 0.025 | 0.012 | – | Activity (A549 [19]): 45%
COc1ccc(C[C@H]2NC(=O)/C=C/C[C@@H](c3c(F)c(F)c(F)c(F)c3F)OC(=O)[C@H](CC(C)C)OC(=O)CCNC2=O)cc1 | > 100 | 30 | 70 | 78 | –
COc1ccc(C[C@H]2NC(=O)/C=C/C[C@@H](c3ccc(Cl)cc3Cl)OC(=O)[C@H](CC(C)C)OC(=O)CCNC2=O)cc1 | > 100 | 100 | 100 | 90 | –
COc1ccc(C[C@@H]2NC(=O)/C=C/C[C@@H](c3ccccc3[N+](=O)[O-])OC(=O)[C@H](CC(C)C)OC(=O)CCNC2=O)cc1 | 90 | 13 | 100 | 47 | –
COc1ccc(C[C@H]2NC(=O)/C=C/C[C@@H](c3ccccc3[N+](=O)[O-])OC(=O)[C@H](CC(C)C)OC(=O)CCNC2=O)cc1 | > 100 | 15 | 67 | 29 | –
COc1ccc(C[C@H]2NC(=O)/C=C/C[C@@H](c3cccc([N+](=O)[O-])c3)OC(=O)[C@H](CC(C)C)OC(=O)CCNC2=O)cc1 | > 100 | > 100 | > 100 | > 100 | –
